Results as given in US9987296B2, “Compositions including anthocyanin or anthocyanidin for the prevention or treatment of Articular cartilage-associated conditions” (priority 2008, dated 2018).
Where two headings read alike, the source gives them in different places.

Legend:
bovine chondrocytes = test: Matrix synthesis rate (35S) of bovine chondrocytes in alginate beads; format: cell-based; settings: 100 uM with IL-1 5 ng/mL
Protocol: Chondrocytes were isolated from weight-bearing regions of young (18-30 months old) bovine femoral condyles. Primary cells were obtained from 3 different animals and suspended in beads of 2% alginate. The alginate beads were precultured in DMEM supplemented with 10% calf serum for 48 hours. Before the experiments, the chondrocytes were serum-starved overnight with 0.1% serum to reduce the effect of serum and to reduce anabolic activity to baseline.
For each treatment condition, 10 millicuries of ^35S was added to each well and incubated for the appropriate duration. At the appropriate harvest time point, each well was then washed extensively with PBS (5-6 times with 500 uL, of PBS), before trypsin and EDTA was added to dissolve alginate. After 20-30 minutes, the dissolved gels and released cells were transferred into 1.5 ml Eppendorf tubes with 150 uL, of calf serum (to promote pellet formation) and the cells were centrifuged at 2000 rpm for 5 minutes. The supernatant was removed via pipette without disturbing the cell pellet. The remaining cell and supernatant (approximately 300 ul) was then mixed with 500 uL of PBS and transferred to scintillation vials, to which 5 ml of scintillation fluid was dispensed. Each scintillation vial was capped, thoroughly vortexed and then placed in a gamma counter to measure gamma radiation emission for each sample. Each sample was measured for 5 minutes.

[1] = tested on: Human articular chondrocytes; test: Cell viability (calcein AM / ethidium homodimer staining); format: cell-based; settings: concentrations above 100 uM up to 500 uM, 96 hours
Text: Chondrocytes were isolated from non-arthritic regions of adult human articular cartilage (N=3 donors) and expanded in tissue culture flasks in DMEM supplemented with 10% calf serum.
At higher concentrations, the color of the anthocyanin interfered with the spectrophotometer reading; therefore, cell viability was additionally measured with calcein staining as follows: Live and dead cells were simultaneously viewed in situ with a confocal microscope (LSM 510; Zeiss, Wetzlar, Germany), using a fluorescent double stain. Calcein AM (1 uM; Invitrogen, Carlsbad, Calif.), a fluorescein derivative that is metabolized by nonspecific esterase present in viable cells, was used to stain live cells. The use of 8 uM ethidium homodimer (Invitrogen), a nucleic acid stain that is excluded by intact cell membranes, enabled visualization of the nuclei of dead cells. After 96-hour exposure to the appropriate concentration of anthocyanins, chondrocytes were cultured in DMEM supplemented with Calcein AM and ethidium homodimer for 45 minutes. Live and dead cells were counted using an automated image analysis script written in Matlab (MathWorks, Natick, Mass.) to measure percentage cell viability.

[2] = tested on: rodent pancreatic beta-cells; settings: in culture, with 4 and 10 mM glucose; cited from earlier work
[3] = tested on: osteoarthritic synovium explants; settings: cited from earlier work

Delphinidin-3-O-Glucoside
matrix synthesis rates (anti-arthritic effect) (bovine chondrocytes; 12 hours, listed as Delphinidin-3-O-glucoside): reversed the effect of IL-1 suppression on matrix synthesis rates | matrix synthesis rates (anti-arthritic effect) (bovine chondrocytes; 12 hours, listed as delphinidin-3-0-glucoside): anti-arthritic effect | matrix synthesis rates (anti-arthritic effect) (bovine chondrocytes; 12 hours, listed as delphinidin-3-O-glucoside): anti-arthritic effect | matrix synthesis rates (anti-arthritic effect) (bovine chondrocytes; 24 hours, listed as Delphinidin-3-O-glucoside): reversed the effect of IL-1 suppression on matrix synthesis rates | matrix synthesis rates (anti-arthritic effect) (bovine chondrocytes; 24 hours, listed as delphinidin-3-0-glucoside): anti-arthritic effect | matrix synthesis rates (anti-arthritic effect) (bovine chondrocytes; 24 hours, listed as delphinidin-3-O-glucoside): anti-arthritic effect | toxicity relative to the other compounds tested [1]: least toxic at 200 μM | insulin secretion [2]: stimulate insulin secretion

N[C@H]1C(O)O[C@H](CO)[C@@H](O)[C@@H]1O (stereo partly drawn) [glucosamine]
increase of HA production ([3]; 0.5 mM): did not | increase of HA production ([3]; 5 mM): approximately 2 fold

Oc1ccc(-c2[o+]c3cc(O)cc(O)c3cc2O)cc1.[Cl-] [Pelargonidin Chloride]
insulin secretion [2]: stimulate insulin secretion

OC[C@H]1OC(Oc2cc3c(O)cc(O)cc3[o+]c2-c2ccc(O)cc2)[C@H](O)[C@@H](O)[C@H]1O.[Cl-] (stereo partly drawn) [pelargonidin-3-galactoses, reference compound]
insulin secretion [2]: stimulate insulin secretion
